Source: patent US12508342B2, “Debridement composition” (priority 2020, dated 2025)

What was measured:
[1] = Simulated wound matrix disruption on 96-peg lid, test solutions (Example 1); conditions: for % Difference in Efficacy (chelators) / % Difference in Efficacy (surfactants): 1% w/w solution, 37° C., 1 hour, absorbance at 595 nm, with respect to 1% w/w benzethonium chloride aqueous solution; for efficacy relative to benzalkonium chloride, cocoamidopropyl betaine and Poloxamer 188 / efficacy in disrupting the simulated test wound matrix relative to SLS: 1% w/w; for efficacy in disrupting the simulated test wound matrix relative to SLS: compared with SLS
Description: The following examples are prepared and evaluated using a simulated wound matrix composition. A wound matrix is prepared to contain:
The pegs are dipped into the simulated wound matrix and immediately transferred to a calcium chloride bath to achieve cross-linking. Solutions of test materials are prepared at 1% w/w in a 96 well microtiter plate. Following crosslinking, the pegs are inserted into the wells and incubated at 37° C. for 1 hour. Efficacy is characterised by the change in colour of the test solutions resulting from disruption of the stained material and is quantified by reading the absorbance of each solution at 595 nm. Results are presented with respect to a 1% w/w benzethonium chloride aqueous solution.

[2] = AKZO Nobel published values using modified Davies HLB group numbers; cited from earlier work

| Compound | % Difference in Efficacy (chelators) [1] | % Difference in Efficacy (surfactants) [1] | HLB Value [2] | further results |
| --- | --- | --- | --- | --- |
| O=C(O)CC(O)(CC(=O)O)C(=O)O [Citric Acid] | +50% | – | – | – |
| O=C([O-])C(=O)[O-].[K+].[K+] [Potassium Oxalate] | +1350% | – | – | – |
| O=P([O-])(O)O.[Na+] [Sodium Di-hydrogen Phosphate] | −70% | – | – | – |
| CCCCCCCCCCCCOS(=O)(=O)[O-].[Na+] [Sodium Dodecyl Sulphate, reference compound] | – | −99% | 33.0 | – |
| CCCCCCCC/C=C\CCCCCCCC(=O)[O-].[Na+] [Sodium Oleate] | – | +996% | 10.55 | efficacy relative to benzalkonium chloride, cocoamidopropyl betaine and Poloxamer 188 [1]: an order of magnitude greater; efficacy in disrupting the simulated test wound matrix relative to SLS [1]: an order of magnitude greater |
| O=C([O-])CC(O)(CC(=O)[O-])C(=O)[O-].[Na+].[Na+].[Na+] [Tris-odium Citrate] | +1750% | – | – | – |
| Benzalkonium Chloride [reference compound] | – | +60% | – | – |
| Cocoamidopropyl betaine | – | +120% | – | – |
| Di-sodium Lauryl Sulfosuccinate | – | +844% | – | efficacy relative to benzalkonium chloride, cocoamidopropyl betaine and Poloxamer 188 [1]: an order of magnitude greater; efficacy in disrupting the simulated test wound matrix relative to SLS [1]: an order of magnitude greater |
| Poloxamer 188 [reference compound] | – | −90% | 3.4 | – |
| Sodium Laureth-2 Sulphate | – | −30% | 15.3 | – |
